Consider twelve molecules from ChEMBL document CHEMBL1145559, “Design, synthesis and in vitro antiprotozoal activity of benzimidazole-pentamidine hybrids” (Bioorg Med Chem Lett, 2008).

One assay has as its system Leishmania mexicana. The experiment in a line: Antiprotozoal activity against Leishmania mexicana. The format is functional, organism-based.
The test system of the next assay is Giardia intestinalis. The experiment in a line: Antiprotozoal activity against Giardia lamblia. The format is functional, organism-based. As to conditions: Giardia duodenalis.
The next assay concerns Trichomonas vaginalis. The experiment in a line: Antiprotozoal activity against Trichomonas vaginalis. The assay is classed as functional, organism-based.
For another assay, the system named is Entamoeba histolytica. The experiment in a line: Antiprotozoal activity against Entamoeba histolytica. The format is functional, organism-based.
In assay [1] the test system is Plasmodium berghei. The experiment in a line: Antiprotozoal activity against Plasmodium berghei at 100 uM. The assay is classed as functional.
The test system of assay [2] is Plasmodium berghei. The experiment in a line: Antiprotozoal activity against Plasmodium berghei. The format is functional, organism-based.
Assay [3] relates to Plasmodium berghei. The experiment in a line: Antiprotozoal activity as cell damage against Plasmodium berghei. The assay is classed as functional, organism-based.

Active and inactive are the calls of the source. The calls are words filed in the database; no cut-off is given here. Where only a bound is given, the exact number is not on record here.

`COc1cc(-c2nc3cc(C)ccc3[nH]2)ccc1OCCCCCOc1ccc(-c2nc3cc(C)ccc3[nH]2)cc1OC`: the concentration for half-maximal inhibition (IC50) was above 50 µM in the assay with Leishmania mexicana, 0.372 µM in the assay with Giardia intestinalis, 1.02 µM in the assay with Trichomonas vaginalis and 4.5 µM in the assay with Entamoeba histolytica. In addition, the result with Plasmodium berghei [1] was inactive.

For the molecule `FC(F)(F)c1ccc2[nH]c(-c3ccc(OCCCCCOc4ccc(-c5nc6cc(C(F)(F)F)ccc6[nH]5)cc4)cc3)nc2c1`, the IC50 in the assay on Leishmania mexicana is above 50 µM; in the assay with Giardia intestinalis it was 9.6 µM; in the assay with Trichomonas vaginalis it was 4.96 µM; in the assay with Entamoeba histolytica, 7.29 µM; in the assay on Plasmodium berghei [2], 6.53 µM.

As to `COc1ccc2[nH]c(-c3ccc(OCCCCCOc4ccc(-c5nc6cc(OC)ccc6[nH]5)cc4OC)c(OC)c3)nc2c1`, the IC50 in the assay on Leishmania mexicana is above 50 µM; with Giardia intestinalis, 5.19 µM; in the assay on Trichomonas vaginalis it was 6.29 µM; with Entamoeba histolytica, 0.284 µM; with Plasmodium berghei [2] it was 24 µM.

`COc1cc(-c2nc3ccccc3[nH]2)ccc1OCCCCCOc1ccc(-c2nc3ccccc3[nH]2)cc1OC`: the IC50 in the assay on Leishmania mexicana was above 50 µM; with Giardia intestinalis, 12.7 µM; in the assay with Trichomonas vaginalis it was 6.15 µM; in the assay on Entamoeba histolytica, 5.19 µM; in the assay with Plasmodium berghei [2], 166 µM.

`c1ccc2[nH]c(-c3ccc(OCCCCCOc4ccc(-c5nc6ccccc6[nH]5)cc4)cc3)nc2c1`: the IC50 with Leishmania mexicana is 1.06 µM; with Giardia intestinalis, 1.84 µM; in the assay with Trichomonas vaginalis it was 3.18 µM; in the assay on Entamoeba histolytica, 0.436 µM; in the assay on Plasmodium berghei [2], 100 µM. In the assay with Plasmodium berghei [1], this molecule yielded an inhibition at 100 µM of 37%.

For `Cc1ccc2[nH]c(-c3ccc(OCCCCCOc4ccc(-c5nc6cc(C)ccc6[nH]5)cc4)cc3)nc2c1`, the IC50 with Leishmania mexicana stood at 0.368 µM; in the assay with Giardia intestinalis, 4.89 µM; in the assay with Trichomonas vaginalis, 4.16 µM; in the assay on Entamoeba histolytica it was 0.153 µM; with Plasmodium berghei [2] it was 100 µM. The inhibition at 100 µM in the assay on Plasmodium berghei [1] turned out to be 43%.

For the molecule `O=[N+]([O-])c1ccc2[nH]c(-c3ccc(OCCCCCOc4ccc(-c5nc6cc([N+](=O)[O-])ccc6[nH]5)cc4)cc3)nc2c1`, the IC50 with Leishmania mexicana is above 50 µM; in the assay with Giardia intestinalis, 7.41 µM; in the assay with Trichomonas vaginalis it was 3.58 µM; in the assay on Entamoeba histolytica, 10.2 µM; in the assay on Plasmodium berghei [2], 100 µM. Further, the inhibition at 100 µM in the assay with Plasmodium berghei [1] is 46%.

Regarding `COc1cc(-c2nc3cc([N+](=O)[O-])ccc3[nH]2)ccc1OCCCCCOc1ccc(-c2nc3cc([N+](=O)[O-])ccc3[nH]2)cc1OC`, the IC50 was 16.8 µM in the assay on Leishmania mexicana; 3.4 µM in the assay on Giardia intestinalis; 0.794 µM with Trichomonas vaginalis; 12.1 µM in the assay on Entamoeba histolytica; 25.9 µM in the assay with Plasmodium berghei [2].

For the molecule `COc1ccc2[nH]c(-c3ccc(OCCCCCOc4ccc(-c5nc6cc(OC)ccc6[nH]5)cc4)cc3)nc2c1`, the IC50 in the assay on Leishmania mexicana amounted to 0.712 µM; with Giardia intestinalis, 0.435 µM; in the assay on Trichomonas vaginalis it was 0.164 µM; with Entamoeba histolytica it was 0.109 µM; with Plasmodium berghei [2] it was 34.6 µM.

As for `COc1cc(-c2nc3cc(C(F)(F)F)ccc3[nH]2)ccc1OCCCCCOc1ccc(-c2nc3cc(C(F)(F)F)ccc3[nH]2)cc1OC`, the IC50 in the assay on Leishmania mexicana was above 50 µM; in the assay on Plasmodium berghei [2] it was 63.1 µM.

`N=C(N)c1ccc(OCCCCCOc2ccc(C(=N)N)cc2)cc1` [PENTAMIDINE]: the IC50 with Leishmania mexicana is 9.57 µM; with Giardia intestinalis, 4.08 µM; with Trichomonas vaginalis, 3.81 µM; in the assay with Entamoeba histolytica, 11.8 µM. Moreover, the result with Plasmodium berghei [3] was Active.

`Cc1ncc([N+](=O)[O-])n1CCO` [METRONIDAZOLE]: the IC50 is 1.29 µM in the assay with Giardia intestinalis, 0.286 µM in the assay with Trichomonas vaginalis and 0.771 µM in the assay with Entamoeba histolytica.
